The record followed here is patent US4315003A, “Compositions containing azo compounds and use thereof for therapeutic treatment” (priority 1979, dated 1982).

Data set [1] relates to rats. In words: Diuretic action in rats (urinary volume during 5 hours after oral administration). Particulars: urinary volume 5 hours, control = 100%. The format is in vivo, rat (male, Wistar strain). As to the method: A group of 5 male rats of Wistar strain having each a body weight ranging from 180 to 200 grams was used for each test compound. The rats were fasted overnight and then abstained from water two hours before the administration of the test compound. The test compound was prepared by suspending the compound in a 5% arabic gum-saline solution and administered orally to the rats in the amount of 25 ml per kg. of body weight.
The urine was collected during 5 hours after administration and its volume was measured. The diuretic actions of the test compounds were calculated as the urinary volume of the control group where no test compound was administered being as 100%.

Data set [2] concerns rats. In words: Hypertensive action in rats (blood pressure, oral, without anesthesia). The format is in vivo, rat. As to the method:
Hypertensive Action in Rats
A suspension of the test compound in a 5% arabic gum solution was orally to rats catheterized before more than 24 hours according to Mizokami et al. (Nihon Taishitsugaku Zasshi, 32, p.p. 59-63 (1969)).

The test system of data set [3] is isolated guinea-pig atria. In words: Cardiotropic action in isolated guinea-pig atria. Also noted: species or system guinea-pig (male). As to conditions: Cavia porcellus, 30° C.; for inhibition at 1 µg/mL / activation at 1 µg/mL: 1 μg/ml; for inhibition at 3 µg/mL / activation at 3 µg/mL: 3 μg/ml. As to the method: Cardiotropic Action in Isolated Guinea-Pig Atria
The isolated atria from male Guinea-Pigs weighing about 350 grams were hanged in an organ bath filled with a Krebs-Henselite's solution and bubbled with a mixed gas (5% CO2 and 95% O2) at 30° C. A solution of the test compound in dimethylsulfoxide was added to the bath. The contractile force and beats were then measured and calibrated into a percentage increase of the contractile force and a percentage decrease of the beats.

Another data set has as its system rabbit eye mucosa. In words: Therapeutic action on hyperemia of rabbit eye mucosa (induced by 0.03 N sodium hydroxide). Also noted: key: conjunctival erythema score per Fukui and Ikemoto standards. As to conditions: for Average Erythema Score After Treatment: 50 μl instilled, before treatment 1, solvent alone 1; for Average Erythema Score Before Treatment: baseline. The format is in vivo, rabbit (male Japanese albino). As to the method: Therapeutic Action on Hyperemia of Rabbit Eye Mucosa
100 μl of 0.03 N sodium hydroxide was instillated into one eye to induce hyperemia in male Japanese albino rabbits weighting about 3 Kg. A group of 3 rabbits was used for test, which were caused an erythema score 1 on their conjunctive based on the standards of Fukui and Ikemoto (Gendai-no-Rinshao, 4, pp. 277 (1970)). The test compound was dissolved in a 10% NIKKOL HCO-60 (trademark: Nikko Chemical Co., Ltd.) and instilled to the test rabbit at a rate of 50 μl.

The next data set in a line: Acute toxicity in mice. As to conditions: mouse, in vivo, deaths for seven days. As to the method: A group of 10 male mice of ddY strain weighing about 25 grams was administered orally or intraperitoneally with a suspension of the test compound in a 5% arabic gum solution in the amount of 10 ml per kg. of body weight. The LD50 values were calculated by means of the Wilcoxon-Litchfield method on the number of mice died for seven days after administration.

A further data set in a line: Solubility. The data set is classed as physicochemical.
Where [4] appears, read: read-out: Percentage Decrease in Beats.
Setting [5] is: read-out: Percentage Increase of Contractile Force.

The term LD50 denotes the dose expected to kill half of the subjects tested. As for `COc1ccc(Cl)cc1N=Nc1ncc[nH]1` [Compound A, 2-[(2-methoxy-5-chlorophenyl)azo]-1H-imidazole], in the data set on rats [1] (0.5 mg/kg), the “Diuretic Activity” value stood at 133%. Further, the “Diuretic Activity” value in the data set with rats [1] (1.0 mg/kg) came out at 183%. In addition, the “Diuretic Activity” value with rats [1] (2.0 mg/kg) is reported as 329%. Besides, in the data set on rats [2] (1 mg/kg), the “Variation in Blood Pressures, Duration Period” value (from here on “Variation … Duration Period”) came out at 55 min and the “Variation in Blood Pressures, Percentage Increase” value (from here on “Variation … Percentage Increase”) amounted to 49%. The inhibition at 1 µg/mL in data set [3] (setting [4]) was found to be 5.4%. For the same compound, the activation at 1 µg/mL in data set [3] (setting [5]) amounted to 15.4%. The “Average Erythema Score After Treatment” value in the data set with rabbit eye mucosa (0.05%) came out at 0.33. Further, the “Average Erythema Score Before Treatment” value in the data set with rabbit eye mucosa is reported as 1. The LD50 at 168 h in “Acute toxicity in mice” (ip) came to 795 mg/kg. In the data set “Acute toxicity in mice” (po, orally), the LD50 at 168 h was 1280 mg/kg. Besides, in “Solubility”, the Solubility in acetone result is “readily soluble”, the Solubility in hexane entry was “less soluble”, the Solubility in methanol entry is on record as “readily soluble” and the Solubility in water entry was “less soluble”.

Turning to `COc1ccc(F)cc1N=Nc1ncc[nH]1` [Compound B, 2-[(2-methoxy-5-fluorophenyl)azo]-1H-imidazole], in the data set with rats [1] (1.0 mg/kg), the “Diuretic Activity” value turned out to be 154%. In addition, the “Diuretic Activity” value in the data set with rats [1] (2.0 mg/kg) came to 275%. In addition, in the data set with rats [2] (2 mg/kg), the “Variation … Duration Period” value worked out at 65 min and the “Variation … Percentage Increase” value was 42%. The inhibition at 1 µg/mL in data set [3] (setting [4]) was determined as 2.3%. The activation at 1 µg/mL in data set [3] (setting [5]) turned out to be 11.5%. Moreover, the “Average Erythema Score After Treatment” value in the data set on rabbit eye mucosa (0.05%) turned out to be 0.33. In addition, the “Average Erythema Score Before Treatment” value in the data set on rabbit eye mucosa is given as 1. This compound returned an LD50 at 168 h in “Acute toxicity in mice” (ip) of 322 mg/kg. For the same compound, the LD50 at 168 h in “Acute toxicity in mice” (po, orally) was found to be 462 mg/kg. Also, in the data set “Solubility”, the Solubility in acetone entry is reported as “readily soluble”, the Solubility in hexane entry is reported as “less soluble”, the Solubility in methanol result is “readily soluble” and the Solubility in water result was “less soluble”.

As to `COc1ccc(Br)cc1N=Nc1ncc[nH]1` [Compound C, 2-[(2-methoxy-5-bromophenyl)azo]-1H-imidazole], in the data set with rats [1] (5.0 mg/kg), the “Diuretic Activity” value was determined as 171%. In the data set on rats [1] (10.0 mg/kg), the “Diuretic Activity” value came to 283%. In addition, in the data set with rats [2] (5 mg/kg), the “Variation … Duration Period” value came to 70 min and the “Variation … Percentage Increase” value is on record as 40%. Moreover, in data set [3] (setting [4]), the inhibition at 3 µg/mL amounted to 4.2%. Besides, the activation at 3 µg/mL in data set [3] (setting [5]) came out at 7.4%. In addition, the “Average Erythema Score After Treatment” value in the data set on rabbit eye mucosa (0.2%) was 0.33. Further, the “Average Erythema Score Before Treatment” value with rabbit eye mucosa is recorded as 1. In “Acute toxicity in mice” (ip), this compound gave an LD50 at 168 h greater than 1000 mg/kg. Besides, in the data set “Acute toxicity in mice” (po, orally), the LD50 at 168 h is greater than 1500 mg/kg. In “Solubility”, the Solubility in acetone entry is “readily soluble”, the Solubility in hexane result is listed as “sparingly soluble”, the Solubility in methanol result is “readily soluble” and the Solubility in water result is listed as “sparingly soluble”.

On to `COc1ccc(I)cc1N=Nc1ncc[nH]1` [Compound D], for which the “Diuretic Activity” value in the data set with rats [1] (5.0 mg/kg) is reported as 138%. The “Diuretic Activity” value in the data set with rats [1] (10.0 mg/kg) came to 183%. In addition, in the data set on rats [2] (5 mg/kg), the “Variation … Duration Period” value came to 50 min and the “Variation … Percentage Increase” value is recorded as 35%. For the same compound, the inhibition at 3 µg/mL in data set [3] (setting [4]) was determined as 3.6%. The activation at 3 µg/mL in data set [3] (setting [5]) came to 6.9%. Further, the “Average Erythema Score After Treatment” value with rabbit eye mucosa (0.2%) turned out to be 0.5. The “Average Erythema Score Before Treatment” value in the data set on rabbit eye mucosa is 1. The LD50 at 168 h in the data set “Acute toxicity in mice” (ip) was greater than 1000 mg/kg. Further, the LD50 at 168 h in “Acute toxicity in mice” (po, orally) is greater than 1500 mg/kg. In addition, in “Solubility”, the Solubility in acetone result is “readily soluble”, the Solubility in hexane entry is “sparingly soluble”, the Solubility in methanol entry is reported as “readily soluble” and the Solubility in water result is on record as “sparingly soluble”.

Turning to `COc1ccccc1N=Nc1ncc[nH]1` [Compound E, 2-[(2-methoxyphenyl)azo]-1H-imidazole], the “Diuretic Activity” value in the data set on rats [1] (10.0 mg/kg) was 175%. For the same compound, the “Diuretic Activity” value in the data set on rats [1] (20.0 mg/kg) was determined as 206%. Also, in the data set on rats [2] (10 mg/kg), the “Variation … Duration Period” value worked out at 85 min and the “Variation … Percentage Increase” value worked out at 52%. Moreover, in data set [3] (10 μg/ml, read-out: Percentage Decrease in Beats), the inhibition at 10 µg/mL was found to be 2.2%. For the same compound, in data set [3] (10 μg/ml, read-out: Percentage Increase of Contractile Force), the activation at 10 µg/mL came to 5.7%. The “Average Erythema Score After Treatment” value in the data set with rabbit eye mucosa (0.1%) came to 0.5. Moreover, the “Average Erythema Score Before Treatment” value in the data set with rabbit eye mucosa was found to be 1. Further, the LD50 at 168 h in “Acute toxicity in mice” (ip) worked out at 630 mg/kg. This compound also came in with an LD50 at 168 h in “Acute toxicity in mice” (po, orally) of 1010 mg/kg. Moreover, in the data set “Solubility”, the Solubility in acetone result is given as “readily soluble”, the Solubility in hexane result was “sparingly soluble”, the Solubility in methanol result was “readily soluble” and the Solubility in water entry is reported as “sparingly soluble”.

Regarding `NS(=O)(=O)c1cc(C(=O)O)c(NCc2ccco2)cc1Cl` [furosemide, reference compound], the results for the “Diuretic Activity” value in the data set on rats [1] (5.0 mg/kg), in the data set with rats [1] (10.0 mg/kg) and in the data set on rats [1] (20.0 mg/kg) were 113%, 188% and 292%, respectively.

For the compound `Nc1nc(N)c2nc(-c3ccccc3)c(N)nc2n1` [triamterene, reference compound], the “Diuretic Activity” value with rats [1] (10.0 mg/kg) is listed as 192%; in the data set on rats [1] (20.0 mg/kg), 242%.
